Measured values published in patent US8110599B2 (priority 2006, dated 2012).
≈ marks a conversion by molar mass, not a printed value. Where two headings read alike, the source gives them in different places.

Experiments:
S180 carcinoma = system: S180 carcinoma
Description: S-180 cells were inoculated subcutaneously to mice at the axillary region at 0.5-1×10^6 cells/mouse. […] The drugs were given 6-8 times in total, one day spaced between two administrations for all the experiments. At the end of experiments, the tumors were removed and weighed, and the tumor inhibition ratio (TIR) was calculated. Pharmaceutical efficacy was considered with TIR≧40% and P<0.05, after statistical analysis.
The prepared solution was filtered through 0.45 and 0.22 μm membrane for sterilization, divided into stock aliquots, and stored at 4° C. for future use. The stock aliquot was further diluted with sterilized PBS (pH=7.4) to the required concentration before drug administration.
5-FU, CTX, and carboplatin solutions were freshly prepared in normal saline before use. […] Mice with the same sex were used in any individual experiment.
S180 cell line was from S180 bearing mice, and was intraperitoneally passaged in Kunming mouse.
Carcinoma inoculation and drug treatment: To each mouse, 0.2 ml of the S180 and H22 cell suspensions (2.5×10^6 cells/ml) were subcutaneously injected into the right axillary region (a total of 5×10^5 cells per mouse), respectively. On the second day, the animals were grouped at random and drugs were administered accordingly. […] The drugs were given once every other day with a total of 6-8 treatments.
Determination of tumor weight and calculation of TIR (tumor inhibition ratio), were as follows. Body weight was recorded on the day after the last drug administration and animals were then sacrificed. The carcinoma was removed and weighed, and TIR (%) was calculated according the following formula: […]

[1] = Solubility and solution stability; format: physicochemical; settings: pure AMP, white powder
[2] = system: human leukemia K562 cells; test: MTT assay, in vitro killing of K562 cells; format: cell-based; settings: for IC50: Homo sapiens
Description: (1) AMP Na: An AMP-Na solution was prepared according to the method of Example 1 at an AMP:Na2CO3 ratio (w/w) of 5:3, which was then diluted 10 times with PBS (pH 6.5) to obtain the AMP-Na stock solution. The stock solution was further diluted by PBS (pH 7.4) to the concentration for cell exposure.
All the drug solutions described above were freshly prepared before use, and the final concentration for cell exposure was 100, 50, 25, 12.5, and 6.25 μg/ml, respectively.
K562 cells were cultured in RPMI1640 culture media supplemented with 10% calf serum, 100 U/ml of penicillin and streptomycin.
1. K562 cells at their log growth period were collected and centrifuged at 1,000 rpm for 5 minutes. The supernatant was discarded, and the cell density was adjusted to 1×10^5 cells/ml with RPMI 1640 cell culture media.
2. Ten microliter of the drug solution at various concentrations and 90 μl of the cell suspension or cell culture media were added to each well of the 96-well plate, followed by incubation in a CO2 incubator.
3. Cells were cultured for another 48-hour or 72-hour. Ten microliter of the MTT solution was added to per well 4 hours before the end of the experiment. Then, the solution was discarded and 100 μl of 10% SDS was added for termination of the experiment.
4. The absorbance of the solution was measured at 570 nm using a plate reader after being shaken on a shaker for 10 minutes. Results were printed out and recorded.
The inhibition ratio (%) was calculated from the following equation: […]
IC50 was calculated by linear regression of drug concentration v.s. cell inhibition ratio.

in vivo = settings: both, Kunming, mouse
Description: Major organs of dead animals were removed, fixed, and subject to pathological study. […] Normal saline (36.25 ml) and 37% HCl (0.75 ml) were added to obtained the AMP stock solution with a concentration of 50 mg/ml and pH of 7.3 (concentrations of solvents including PEG 400, propanediol, and ethanol were 0.03, 0.0445, and 0.015 g/ml, respectively). […] The stock solution was further diluted in normal saline to the required concentration, and was i.v. or i.p. administered to mice at 0.2 ml/10 g bodyweight.
Both male and female Kuming mice of SPF grade, weighing 18-22 g, were used in the experiment. […] All data were analyzed by DAS software.

[3] = carboplatin experiment, carboplatin 25 mg/kg, ip alone

Structure (SMILES): O=c1[nH]cc(F)c(=O)[nH]1 [5-FU, reference compound]
- TIR (%) (S180 carcinoma; 5-FU experiment, 5-FU 20 mg/kg, ip alone): 45.55%
- Tumor weight (g) (X ± SD) (S180 carcinoma; 5-FU experiment, 5-FU 20 mg/kg, ip alone, 11 days before sacrifice): 1.08 ± 0.60 g

Structure (SMILES): O=C1c2c(O)cc(O)cc2O[C@H](c2cc(O)c(O)c(O)c2)[C@H]1O [AMP-DMSO, AMPelopsin, reference compound]
- Solubility in water [1]: does not dissolve
- IC50 ([2]; K562, 72 h): 4.09 µg/mL (≈ 12.8 µM)
- IC50 ([2]; K562, after drug exposure for 48 h and 72 h): 32.3 µg/mL (≈ 101 µM)
- IC50 ([2]; K562, cell treatment for 48 h): 32.3 µg/mL (≈ 101 µM)
- LD50 at 7 day (in vivo): 1000 mg/kg
- LD50 at 7 day (in vivo; iv): 1000 mg/kg

Structure (SMILES): O.O.O.O.O.O=C1c2c(O)cc([O-])cc2OC(c2cc([O-])c(O)c([O-])c2)C1[O-].[Na+].[Na+].[Na+].[Na+] (stereo not shown) [AMP-Na, pentahydrate of the AMPelopsin unsaturated sodium salt]
- IC50 in killing K562 cells ([2]; 48 h): 29.56 µg/mL
- Killing effects towards K562 cells, AMP-Na compared with AMP-DMSO ([2]; 48 h and 72 h): no significant difference
- IC50 in killing K562 cells ([2]; 72 h): 4.23 µg/mL
- IC50 in killing K562 cells ([2]; after drug exposure for 48 h and 72 h): 29.56 µg/mL
- TIR (%) (S180 carcinoma; 5-FU experiment, AMP-Na 50 mg/kg, ip, alone or jointly with 5-FU): 4.43%
- Tumor weight (g) (X ± SD) (S180 carcinoma; 5-FU experiment, AMP-Na 50 mg/kg, ip, alone or jointly with 5-FU, 11 days): 1.89 ± 0.75 g
- TIR (%) (S180 carcinoma; 5-FU experiment, AMP-Na 75 mg/kg, ip, alone or jointly with 5-FU): 31.28%
- Tumor weight (g) (X ± SD) (S180 carcinoma; 5-FU experiment, AMP-Na 75 mg/kg, ip, alone or jointly with 5-FU, 11 days): 1.36 ± 0.69 g
- Tumor weight (g) (X ± SD) (S180 carcinoma; 5-FU experiment, AMP-Na 112 mg/kg, ip, alone or jointly with 5-FU, 11 days): 1.32 ± 0.78 g
- TIR (%) (S180 carcinoma; 5-FU experiment, AMP-Na 112 mg/kg, ip, alone or jointly with 5-FU, sodium salt): 33.49%
- TIR (%) (S180 carcinoma; 5-FU experiment, AMP-Na 167 mg/kg, ip, alone or jointly with 5-FU): 4.45%
- Tumor weight (g) (X ± SD) (S180 carcinoma; 5-FU experiment, AMP-Na 167 mg/kg, ip, alone or jointly with 5-FU, 11 days): 1.89 ± 0.59 g
- T1R (%) (S180 carcinoma; CTX experiment, AMP-Na 50 mg/kg, ip, alone or jointly with CTX): 7.66%
- Tumor weight (g) (X ± SD) (S180 carcinoma; CTX experiment, AMP-Na 50 mg/kg, ip, alone or jointly with CTX, 12 days): 1.66 ± 0.84 g
- T1R (%) (S180 carcinoma; CTX experiment, AMP-Na 75 mg/kg, ip, alone or jointly with CTX): 6.84%
- Tumor weight (g) (X ± SD) (S180 carcinoma; CTX experiment, AMP-Na 75 mg/kg, ip, alone or jointly with CTX, 12 days): 1.67 ± 1.03 g
- T1R (%) (S180 carcinoma; CTX experiment, AMP-Na 112 mg/kg, ip, alone or jointly with CTX): −3.86%
- Tumor weight (g) (X ± SD) (S180 carcinoma; CTX experiment, AMP-Na 112 mg/kg, ip, alone or jointly with CTX, 12 days): 1.86 ± 1.21 g
- T1R (%) (S180 carcinoma; CTX experiment, AMP-Na 167 mg/kg, ip, alone or jointly with CTX): −16.25%
- Tumor weight (g) (X ± SD) (S180 carcinoma; CTX experiment, AMP-Na 167 mg/kg, ip, alone or jointly with CTX, 12 days): 2.08 ± 1.07 g
- TIR (%) (S180 carcinoma; carboplatin experiment, AMP-Na 50 mg/kg, ip, alone or jointly with carboplatin): 23.22%
- Tumor weight (g) (X ± SD) (S180 carcinoma; carboplatin experiment, AMP-Na 50 mg/kg, ip, alone or jointly with carboplatin, 10 days): 1.12 ± 0.30 g
- TIR (%) (S180 carcinoma; carboplatin experiment, AMP-Na 75 mg/kg, ip, alone or jointly with carboplatin): 3.99%
- Tumor weight (g) (X ± SD) (S180 carcinoma; carboplatin experiment, AMP-Na 75 mg/kg, ip, alone or jointly with carboplatin, 10 days): 1.40 ± 0.58 g
- TIR (%) (S180 carcinoma; carboplatin experiment, AMP-Na 112 mg/kg, ip, alone or jointly with carboplatin): 13.87%
- Tumor weight (g) (X ± SD) (S180 carcinoma; carboplatin experiment, AMP-Na 112 mg/kg, ip, alone or jointly with carboplatin, 10 days): 1.26 ± 0.69 g
- TIR (%) (S180 carcinoma; carboplatin experiment, AMP-Na 167 mg/kg, ip, alone or jointly with carboplatin): −7.47%
- Tumor weight (g) (X ± SD) (S180 carcinoma; carboplatin experiment, AMP-Na 167 mg/kg, ip, alone or jointly with carboplatin, 10 days): 1.57 ± 0.71 g
- Tumor suppression, AMP-Na alone (S180 carcinoma; single administration, S-180 bearing mice): no or weak tumor suppression

Structure (SMILES): N.N.O=C([O-])C1(C(=O)[O-])CCC1.[Pt+2] [carboplatin, reference compound]
- Body weight (g) after (S180 carcinoma; [3]): 18.57/25.75 g
- TIR (%) (S180 carcinoma; [3]): 49.52%
- Tumor weight (g) (X ± SD) (S180 carcinoma; carboplatin experiment, carboplatin 25 mg/kg, ip alone, 10 days before sacrifice): 0.74 ± 0.28 g
